The record followed here is EP0808325B1, “[…] […] SERIES FOR […] GABA RECEPTOR” (priority 1994, dated 1996).

For orientation: pIC50 means the IC50 on a negative log10 scale, so that one unit is a factor of ten.

The structures appear in SMILES notation. pIC50: −log10 of the molar value.

One assay has as its target GR complex. As to the kind of experiment: modulation of [35S]TBPS binding in rat cerebral cortex P2 homogenate. As to conditions: for pIC50: concentration of compounds to inhibit 50% of control [35S]TBPS binding, 2 nM [35S]TBPS, 25°C, 90 minutes, no unit printed; for IMAX: maximum inhibition of [35S]TBPS binding, I* = Inactive. The arrangement: species or system Sprague-Dawley rats; IMAX: unit not given here. An outline of the steps: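 Rat (male Sprague-Dawley) cortical P2 homogenate, 0.5 mg protein, in 50 mM Na/K phosphate pH 7.4, 200 mM NaCl, incubated 90 min at 25° C with 2 nM [35S]TBPS plus GABA and (+)bicuculline, compounds added in DMSO. Filter-bound radioactivity counted; nonspecific binding defined with […].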

Assay [1] deals with mice. As to the kind of experiment: loss-of-righting reflex (anesthetic activity). Set-up: unit not given here. The settings on record: iv. The assay is classed as in vivo. The method, then: The compounds of and used in the invention can also be used for anesthetic indications at high doses. However, the preferred route of administration to induce anesthesia is intravenous (i.v.) administration. In animals, a drug's anesthetic properties is measured by the drug's ability to produce a loss-of-righting reflex. The loss-of-righting reflex is defined as the inability of an animal to right itself within 30 seconds when placed on its back. Mice were administered drug i.v. in the lateral tail vein. Following administration, mice were placed on their backs and observed for loss-of-righting reflex.

The subject of assay [2] is metrazol induced convulsions. As to the kind of experiment: animal or person. As to conditions: IP, 10 mg/kg. Type of assay: in vivo, mice.
Assay [3] relates to rats. As to the kind of experiment: Vogel test. Type of assay: in vivo. The settings on record: i.c.v. The text has this: The Vogel test is based on the development of a conflict between a highly motivated behavior and an aversion. For this test, the strong motivation is thirst. The animal is water deprived for 12-16 hrs to produce the motivation to drink. During the training period the animals are exposed to the testing environment so they become accustomed to the drinking spout and minimize the fear of a novel environment. Following training, the animals are allowed access to water for 2 hrs. During this time, the animals will drink and eat their normal amount of water and food, compensating for the deprivation time. However, this schedule still produces a strong motivation to drink during the testing period.
Having been deprived of water for twelve to sixteen hours, an animal is placed in a test cage where it is allowed to drink freely for five minutes. This period is used to habituate the animal to the environment and the drinking spout Following the training period, animals have access to water and food in their home cage for 2 hrs. Food is available at all times. Twenty-four hours later, drug is administered to the animal intracerebroventricularly.
After an indicated delay started from the time of injection the animal is again placed in the test cage for ten minutes. A computer counts each time the animal licks, and after every twentieth lick administers a mild electric stimulus across the tongue and/or feet. The electrical stimulus consists of a 0.6 mA current with a duration of 100 msec. This procedure produces a state of conflict for the animal that is reduced by the administration of clinically used anxiolytic agents (i.e., Valium). For dose-response curves, separate groups of animals are injected with increasing doses of test drug and are tested at a predetermined time.

For assay [4], the system named is mice. The experiment in a line: elevated plus-maze. The assay is classed as in vivo, N.I.H. Swiss-Webster mice. As to conditions: IP, 50% hpbcd. An outline of the steps: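 Male Swiss-Webster mice (15-20 g), dosed once with drug or vehicle, were placed on an elevated plus-maze 10 min post-injection for 5 min. Open-arm entries and open-arm time recorded, each as a percentage of total arm entries or time; center time excluded.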

Assay [5] concerns rats. As to the kind of experiment: Geller-Seifter conflict test. The settings on record: sc, 50% hpbcd, 2 mg/kg. Type of assay: in vivo, Sprague-Dawley rats. The text has this:
This animal model of human anxiety utilizes a conditioned state of conflict in rats to ascertain the anxiolytic properties of drugs. Rats are conditioned to bar press for positive reinforcement under two schedules of behavior (Geller and Seifter, Psychopharmacologia 1:482-492 (1960)). The first includes bar pressing under a […] schedule without punishment. The second component is a fixed ratio schedule with each bar press resulting in a positive reinforcement and a punishment. The punished component produces a state of conflict within the animal. […] An anxiolytic response would increase the punished responding without affecting the unpunished responding.
Male albino Sprague-Dawley rats (Charles River Labs, Wilmington, MA) weighing 250-300 g were used for conflict experiments and were kept on a restricted diet of Purina Lab Chow food pellets with water available at all times to maintain body weight at 85% of their free-feeding young adult levels. Rats were housed individually under a 12-hour light-dark cycle with lights on from 0700-1900.
The anti-anxiety (punishment-lessening) and response depressant effects of […] and […] were measured in rats by the conflict test of Geller and Seifter (1960). In this 63-min test, hungry rats perform a lever-press response to obtain a sweetened milk reward. The reinforcement schedule consists of punishment and nonpunishment components, alternating approximately every 15 min. Rats were trained in test chambers (Coulbourn instruments) with a lever mounted in one wall, a small dipper that delivered the 0.1-mL milk reward (1 part Eagle condensed : milk 2 parts water), and a metal grid floor through which the foot-shock punishment was administered. A DEC PDP 11/73 minicomputer running SKED (State Systems) was used for programming and recording.
Rates initially learned to respond on a continuous reinforcement schedule and progressed rapidly to 30-sec, 1-min, and 2-min variable interval (VI) schedules. On the continuous reinforcement schedule, rats received milk reward following every lever press; on the VI schedules, milk rewards were available at infrequent and variable intervals, eventually at an average of once every 2 min. Four 3-min "conflict" periods were then introduced on the unpunished VI baseline; the first started after 3 min of VI performance and the others were alternated between 12-min periods of VI responding. During conflict periods, which were signalled by the presentation of a light and a tone, the continuous reinforcement schedule was again in force and each lever press delivered both a milk reward and a brief ([…]) foot-shock punishment. Shock intensity was 0.2 mA initially, and.was increased daily in increments of 0.02 mA in order to gradually suppress lever pressing to 5 responses or less per conflict period. This training took 4-6 weeks, after which stable low rates of response were observed during conflict periods and stable high rates in the nonpunishment periods. Drug-induced increases in the rate of punished responses were taken as an index of antianxiety activity, while decreases in the rate of unpunished responses were taken as an index of response depression or sedation.

Setting [6] is: 50% hpbcd, 10 minutes prior to metrazol (85 mg/kg).

In the case of `CC(=O)[C@H]1CC[C@H]2[C@@H]3CC[C@@H]4C[C@](C)(O)CC[C@]4(C)[C@H]3CC[C@]12C` [3α-hydroxy-3β-methyl-5β-pregnan-20-one], on GR complex, the pIC50 was 7.43 and the IMAX came out at 98. Besides, in the assay with mice [1] (micronizing solution, 2.5 mg/kg), the “Loss-of-Righting Reflex” value was 100. Moreover, the “% Protected” value in assay [2] (micro soln.) is reported as 70%.

On GR complex, `CCC[C@H](O)[C@H]1CC[C@H]2[C@@H]3CC[C@H]4C[C@H](O)CC[C@]4(C)[C@H]3CC[C@]12C` [3α,20α-dihydroxy-21-ethyl-5α-pregnane] showed a negative logarithm of the IC50 (pIC50) of 7.57 and an IMAX of 13. In addition, the “Vogel (% of control)” value with rats [3] (g-CD, 20 ug) was 225.8 % of control.

For the molecule `CC(C)OC1CC2(C)C(CCC3C2CCC2(C)C(C(C)O)CCC32)CC1O` (stereo not drawn) [3α,20α-Dihydroxy-2β-isopropoxy-5α-pregnane], the “Vogel (% of control)” value with rats [3] (g-CD, 10 ug) is on record as 169.0 % of control.

As to `C[C@H](O)[C@H]1CC[C@H]2[C@@H]3CC[C@H]4C[C@H](O)CC[C@]4(C)[C@H]3CC[C@]12C` [3α,20a(S)-dihydroxy-5α-pregnane, 3α,20α(S)-Dihydroxy-5α-pregnane], at GR complex, the pIC50 is 7.00 and the IMAX was 46. Besides, the “% Protected” value in assay [2] (micro soln.) is listed as 30%. For the same molecule, the “Vogel (% of control)” value with rats [3] (b-CD, 10 ug) is 193.0 % of control.

Take `C[C@H](O)[C@H]1CC[C@H]2[C@@H]3CC[C@@H]4C[C@H](O)CC[C@]4(C)[C@H]3CC[C@]12C` [3α,20α-Dihydroxy-5β-pregnane]: the “Vogel (% of control)” value with rats [3] (g-CD, 10 ug) is reported as 283.3 % of control.

On to `C#C[C@@]1(O)CC[C@@]2(C)[C@H](CC[C@@H]3[C@@H]2CC[C@]2(C)[C@@H](C(=O)CO)CC[C@@H]32)C1` [3α,21-Dihydroxy-3β-ethynyl-5β-pregnan-20-one], for which, in the assay on mice [4] (10 mg/kg), the “% Control” value was 162%. Besides, at GR complex, the pIC50 is 6.67 and the IMAX is listed as 104. Further, the “Loss-of-Righting Reflex” value with mice [1] (20% cremophor, 10 mg/kg) is listed as 100. Further, the “% Protected” value in assay [2] (setting [6]) is recorded as 18.8%.

In the case of `CC(O)C1CCC2C3CCC4CC(O)C(F)CC4(C)C3CCC12C` (stereo not drawn) [2β-Fluoro-3α,20α-dihydroxy-5α-pregnane], in the assay on rats [3] (g-CD, 20 ug), the “Vogel (% of control)” value is 264.9 % of control.

Regarding `C#C[C@@]1(O)CC[C@@]2(C)[C@H](CC[C@@H]3[C@@H]2CC[C@]2(C)[C@@H](C(C)=O)CC[C@@H]32)C1` [3β-ethynyl-3α-hydroxy-5β-pregnan-20-one, 3β-Ethynyl-3α-hydroxy-5β-pregnan-20-one], in the assay with mice [4] (1 mg/kg), the “% Control” value came to 186.6%. On GR complex, the pIC50 is 7.41 and the IMAX amounted to 101. In the assay on mice [1] (10% hpbcd, 30 mg/kg), the “Loss-of-Righting Reflex” value came to 100. For the same molecule, the “% Protected” value in assay [2] (setting [6]) is reported as 100%. The “Geller/Seifter (% of control)” value in the assay with rats [5] is 751.1 % of control.

Turning to `CC(=O)C1=CC[C@H]2[C@@H]3CC[C@H]4C[C@](C)(O)CC[C@]4(C)[C@H]3CC[C@]12C` [3α-Hydroxy-3β-methyl-5α-pregn-16-en-20-one], in the assay on mice [1] (micronizing solution, 50 mg/kg), the “Loss-of-Righting Reflex” value was 100.

For the molecule `CCO[C@H]1C[C@@]2(C)[C@@H](CC[C@@H]3[C@@H]2CC[C@]2(C)[C@@H](C(C)=O)CC[C@@H]32)C[C@@H]1O` [2β-Ethoxy-3α-hydroxy-5α-pregnan-20-one], the “Loss-of-Righting Reflex” value in the assay on mice [1] (20% cremophor, 5 mg/kg) came to 100.

At GR complex, `CC(C)(O)[C@H]1CC[C@H]2[C@@H]3CC[C@H]4C[C@H](O)CC[C@]4(C)[C@H]3CC[C@]12C` [3α,20-dihydroxy-20-methyl-5α-pregnane] had a pIC50 of 6.75 and an IMAX of 40. For the same molecule, in the assay with rats [3] (g-CD, 20 ug), the “Vogel (% of control)” value is recorded as 179.0 % of control.

At GR complex, `CC[C@H](O)[C@H]1CC[C@H]2[C@@H]3CC[C@H]4C[C@H](O)CC[C@]4(C)[C@H]3CC[C@]12C` [3α,20α-dihydroxy-21-methyl-5α-pregnane, 3α,20α-Dihydroxy-21-methyl-5α-pregnane] showed a pIC50 of 7.46 and an IMAX of 28. Further, in the assay on rats [3] (g-CD, 10 ug), the “Vogel (% of control)” value is on record as 157.9 % of control.

For the molecule `COC=C1CCC2C3CCC4CC(O)CCC4C3CCC12C` (stereo not drawn) [3α-Hydroxy-17(20)(Z)-methoxytnethylene-19-nor-5α-androstane], the “Loss-of-Righting Reflex” value in the assay on mice [1] (micronizing solution, 5 mg/kg) is reported as 75.

As for `C[C@@H](O)[C@H]1CC[C@H]2[C@@H]3CC[C@@H]4C[C@H](O)CC[C@]4(C)[C@H]3CC[C@]12C` [3α,20β-Dihydroxy-5β-pregnane], the “Vogel (% of control)” value in the assay on rats [3] (g-CD, 20 ug) is 267.3 % of control.

In the case of `COCCC(=O)[C@H]1CC[C@H]2[C@@H]3CC[C@H]4C[C@](C)(O)CC[C@]4(C)[C@H]3CC[C@]12C` [3α-Hydroxy-3β-methyl-21-methoxymethyl-5α-pregnan-20-one], the “Loss-of-Righting Reflex” value in the assay on mice [1] (micronizing solution, 20 mg/kg) was found to be 100.
